Experimental data reported in the NIST ThermoML archive (doi:10.1021/je100765j).

Experiment: xn = mol fraction of the nth substance listed
Details: 101 kPa, Liquid; for speed of sound: Sing-around technique in a fixed-path interferometer

CC(C)CCl [1-chloro-2-methylpropane] + CC(C)OC(C)C
Details	mass density [kg/m3]	speed of sound [m/s]
283.15 K, x1 = 0.0549	740.509	1069.1
283.15 K, x1 = 0.091	745.071	1071.7
283.15 K, x1 = 0.1977	758.96	1079.6
283.15 K, x1 = 0.2934	772.077	1087
283.15 K, x1 = 0.3911	785.941	1094.4
283.15 K, x1 = 0.5137	804.21	1103.7
283.15 K, x1 = 0.6034	818.258	1110.5
283.15 K, x1 = 0.6769	830.206	1116.2
283.15 K, x1 = 0.8059	852.473	1126.3
283.15 K, x1 = 0.9111	871.773	1134.7
283.15 K, x1 = 0.9646	881.981	1139
288.15 K, x1 = 0.0549	735.346	1046.8
288.15 K, x1 = 0.091	739.888	1049.4
288.15 K, x1 = 0.1977	753.737	1057.5
288.15 K, x1 = 0.2934	766.807	1064.8
288.15 K, x1 = 0.3911	780.617	1072.3
288.15 K, x1 = 0.5137	798.831	1081.8
288.15 K, x1 = 0.6034	812.821	1088.7
288.15 K, x1 = 0.6769	824.734	1094.5
288.15 K, x1 = 0.8059	846.936	1104.9
288.15 K, x1 = 0.9111	866.179	1113.5
288.15 K, x1 = 0.9646	876.368	1117.9
293.15 K, x1 = 0.0549	730.142	1024.4
293.15 K, x1 = 0.091	734.678	1027
293.15 K, x1 = 0.1977	748.467	1035.1
293.15 K, x1 = 0.2934	761.481	1042.6
293.15 K, x1 = 0.3911	775.245	1050.3
293.15 K, x1 = 0.5137	793.406	1059.9
293.15 K, x1 = 0.6034	807.35	1066.9
293.15 K, x1 = 0.6769	819.228	1072.8
293.15 K, x1 = 0.8059	841.356	1083.4
293.15 K, x1 = 0.9111	860.549	1092.2
293.15 K, x1 = 0.9646	870.717	1096.8
298.15 K, x1 = 0.0549	724.887	1002.1
298.15 K, x1 = 0.091	729.395	1004.7
298.15 K, x1 = 0.1977	743.114	1013
298.15 K, x1 = 0.2934	756.06	1020.5
298.15 K, x1 = 0.3911	769.763	1028.2
298.15 K, x1 = 0.5137	787.825	1038
298.15 K, x1 = 0.6034	801.699	1045.2
298.15 K, x1 = 0.6769	813.519	1051.2
298.15 K, x1 = 0.8059	835.53	1062
298.15 K, x1 = 0.9111	854.603	1071
298.15 K, x1 = 0.9646	864.749	1075.6
303.15 K, x1 = 0.0549	719.603	979.86
303.15 K, x1 = 0.091	724.11	982.53
303.15 K, x1 = 0.1977	737.798	990.87
303.15 K, x1 = 0.2934	750.738	998.49
303.15 K, x1 = 0.3911	764.421	1006.3
303.15 K, x1 = 0.5137	782.446	1016.2
303.15 K, x1 = 0.6034	796.305	1023.5
303.15 K, x1 = 0.6769	808.11	1029.7
303.15 K, x1 = 0.8059	830.111	1040.8
303.15 K, x1 = 0.9111	849.196	1050
303.15 K, x1 = 0.9646	859.307	1054.8
308.15 K, x1 = 0.0549	714.28	957.82
308.15 K, x1 = 0.091	718.759	960.52
308.15 K, x1 = 0.1977	732.397	968.88
308.15 K, x1 = 0.2934	745.3	976.54
308.15 K, x1 = 0.3911	758.935	984.48
308.15 K, x1 = 0.5137	776.901	994.58
308.15 K, x1 = 0.6034	790.719	1002
308.15 K, x1 = 0.6769	802.492	1008.2
308.15 K, x1 = 0.8059	824.422	1019.6
308.15 K, x1 = 0.9111	843.468	1029
308.15 K, x1 = 0.9646	853.542	1033.8
313.15 K, x1 = 0.0549	708.887	935.95
313.15 K, x1 = 0.091	713.334	938.67
313.15 K, x1 = 0.1977	726.882	947.16
313.15 K, x1 = 0.2934	739.693	954.94
313.15 K, x1 = 0.3911	753.227	963
313.15 K, x1 = 0.5137	771.077	973.17
313.15 K, x1 = 0.6034	784.802	980.73
313.15 K, x1 = 0.6769	796.487	987.04
313.15 K, x1 = 0.8059	818.264	998.57
313.15 K, x1 = 0.9111	837.168	1008.1
313.15 K, x1 = 0.9646	847.176	1013
